{
  "source": "patent US8835476B2",
  "about": "“Synthesis of novel antimicrobials” (priority 2005, dated 2014)",
  "key": {"recombinant E. coli LpxA": {"biological_target": "T1, recombinant E. coli LpxA (Escherichia coli, UniProt P0A722)", "T1 construct": "6xHis (C); made in house; host or cells: E. coli BL21 (pET23b)", "T1 sequence (P0A722 whole entry)": "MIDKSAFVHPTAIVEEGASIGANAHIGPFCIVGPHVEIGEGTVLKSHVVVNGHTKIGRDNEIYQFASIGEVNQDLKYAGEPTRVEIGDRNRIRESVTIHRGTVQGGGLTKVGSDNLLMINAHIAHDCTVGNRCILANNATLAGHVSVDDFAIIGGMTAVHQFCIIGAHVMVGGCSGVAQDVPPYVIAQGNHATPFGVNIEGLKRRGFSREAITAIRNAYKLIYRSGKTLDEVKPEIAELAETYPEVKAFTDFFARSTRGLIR", "assay": "LpxA assay: acyl-UDP-GlcNAc formation from UDP-[3H]GlcNAc, TLC", "format": "biochemical", "conditions": "for inhibition at 5000 µM: 5 mM compound, FIG. 8", "description": "The lpxA gene was amplified from an E. coli genomic library and inserted into a pET23b vector using standard recombinant DNA methodology. The 5′ oligonucleotide for amplification of the LpxA open reading frame was 5′-[…]-3′ (SEQ ID NO. 1) and contains a BamHI restriction enzyme site upstream of the LpxA ATG start codon and the 3′ oligonucleotide was 5′-[…]-3′ (SEQ ID NO. 2) and contains a XhoI restriction enzyme site downstream of the final codon of the LpxA open reading frame. Primers were custom synthesized. The primers were designed such that digestion of the amplification product would result in addition of a C-terminal 6×-His tag in frame with the LpxA open reading frame. Specifically, E. coli genomic DNA was isolated and an amplification reaction was carried out as follows: 33 μl water, 5 μl 10× reaction buffer, 1.5 μl of 50 mM magnesium sulfate, 3 μl of 10 mM dNTPs, 3 μl of a 50 μM solution of the 5′ LpxA primer, 3 μl of a 50 μM solution of the 3′ LpxA primer, 0.5 μl of E. coli genomic DNA solution, and 1 μl of polymerase. The reaction conditions were as follows: 94° C. for 2 minutes; followed by 30 cycles of 94° C. for 30 seconds, 50° C. for 30 seconds, 68° C. for 1.5 minutes, followed by an extension at 68° C. for 7 minutes. The resulting LpxA product was separated from other DNA on a 0.8% agarose gel and isolated from the gel. The LpxA open reading frame was cloned into a topoisomerase I-activated vector and transformed into E. coli. […] The newly synthesized plasmid containing the BamHI- and XhoI-flanked LpxA open reading frame and plasmid pET23a were digested with BamHI and XhoI at 37° C. for 2 hours, DNA was separated by agarose gel electrophoresis, isolated from the gel, and ligated. Ligation reactions were transformed into chemically competent E. coli and plasmid DNA was isolated. Restriction mapping was performed to determine which plasmids contained the LpxA open reading frame. To remove the T7 epitope coding sequence from the 5′end of the LpxA open reading frame, the pET23a plasmid containing the LpxA open reading frame was digested with the restriction enzymes BamHI and XhoI and a pET23b plasmid was digested with BglII and XhoI, DNA was separated by agarose gel electrophoresis, isolated from the gel, and ligated. Ligation reactions were transformed into chemically competent E. coli and plasmid DNA was isolated. Restriction mapping was performed to assess plasmids containing the LpxA open reading frame.\nA 5 ml culture of E. Coli BL21 cells expressing the LpxA-6×His plasmid was grown overnight at 37° C. in LB medium containing 50 μg/ml ampicillin and 34 μg/ml chloramphenicol, then subcultured into 500 ml of the same medium and grown at 37° C. until A600=0.6. LpxA expression was induced by addition of 0.5 mM IPTG for three hours. The cells were centrifuged at 7 000×g for 10 minutes at 4° C. and lysed using a mild, nonionic detergent. The soluble fraction containing LpxA was added to 1 ml of nickel affinity resin in a 15 ml Falcon tube; the resin was washed extensively with extraction/wash buffer (50 mM Na-phosphate (pH 7.0) and 300 mM NaCl) prior to use. This mixture was incubated on a rotating platform at low speed for 20 minutes at room temperature. The resin was centrifuged at 1000 rpm in a bench top centrifuge for 2 min, washed twice (10 min each) with 10 ml of extraction/wash buffer, resuspended in 10 ml of extraction/wash buffer, and transferred to a 10 ml polypropylene disposable protein purification column. The column was eluted with 5 ml of 50 mM Na-phosphate (pH 7.0) containing 300 mM NaCl and 150 mM imidazole, collected in 1 ml fractions. The eluate was analysed by SDS-PAGE and was visualised using a protein stain (FIG. 7 inset).\nRecombinant Vibrio harveyi acyl carrier protein was prepared from a GST fusion protein as described previously (Flaman et al., 2001). […]"}, "[1]": {"test_system": "LPS synthesis in E. coli strain D22", "assay": "In vivo LPS synthesis: [3H]galactose incorporation into acid-precipitable material", "format": "cell-based", "conditions": "0.1 mM, FIG. 10B", "experimental": "LpxA catalyzes the first step in the synthesis of lipid A (the hydrophobic anchor of LPS), which is essential for the growth and pathogenesis of many gram-negative bacteria. The inhibition of LpxA activity would therefore result in decreased synthesis of LPS. To measure the synthesis of LPS in vivo, the incorporation of radiolabelled galactose into acid-precipitable material was determined. The E. coli strain used for these studies was D22 (obtained from the E. coli Genetic Stock Center), which contains a mutation in the LpxC gene (lpxC101; Normark et al., 1969, J Bacteriol 97, 1334). Strains harbouring this mutation have an increased susceptibility to antibiotics, in addition to producing approximately 30% less LPS (Grundstrom et al., 1980, J Bacteriol 144, 884.). Bacteria were grown in Luria broth to early-log phase, at which point, 500 μl was transferred to a culture tube containing 1 μl of [^3H]galactose (final concentration, 0.2 mM, 20 μCi/μmol) and mixed. Cultures were incubated at 30° C. for 75 minutes with shaking at 220 rpm. Incorporation was terminated by adding 400 μl of labelled culture to 44.4 μl of 100% trichloroacetic acid (TCA, 10% final concentration) in a 1.5 ml microcentrifuge tube. Tubes were vortexed, incubated on ice for 30 minutes, then centrifuged at 14 000 rpm for 5 minutes at room temperature. The pellet was rinsed twice with 1 ml of ice-cold 10% TCA, resuspended in 50 μl of formic acid, and transferred to a scintillation vial for counting.\nCompounds to be tested were dissolved in DMSO and added to the bacterial culture prior to labelling with galactose, and LPS synthesis was determined as described previously. The final concentration of DMSO (1%, v/v) had minimal effect on LPS synthesis."}},
  "data": [
    {"smiles": "Fc1ccc(-c2cc(-c3nnn[nH]3)c(-c3ccc(F)cc3)s2)cc1", "note": "[DNM-131, 5-(2,5-Bis(4-fluorophenyl)thiophen-3-yl)-1H-tetrazole]", "values": [
      {"measurement": "inhibition at 5000 µM", "setting": "recombinant E. coli LpxA", "result": "> 80", "unit": "%"},
      {"measurement": "inhibition of LpxA activity", "setting": "recombinant E. coli LpxA; concentrations above 500 μM, FIG. 9", "result": "almost complete inhibition"},
      {"measurement": "decrease of LPS synthesis", "setting": "[1]", "result": "approximately 70%"}
    ]},
    {"smiles": "Cn1nnc(-c2cc(-c3ccc(F)cc3)sc2C(=O)O)n1", "note": "[DNM-142, 5-(4-Fluoro-phenyl)-3-(2-methyl-2H-tetrazol-5-yl)-thiophene-2-carboxylic acid]", "values": [
      {"measurement": "inhibition at 5000 µM", "setting": "recombinant E. coli LpxA", "result": "> 70", "unit": "%"}
    ]},
    {"smiles": "Cn1nnc(-c2cc(C(=O)O)sc2-c2ccc(F)cc2)n1", "note": "[DNM-123, 5-(4-fluorophenyl)-4-(2-methyl-2H-tetrazol-5-yl)thiophene-2-carboxylic acid]", "values": [
      {"measurement": "inhibition at 500 µM", "setting": "recombinant E. coli LpxA; 500 μM, FIG. 9", "result": "~60", "unit": "%"},
      {"measurement": "inhibition at 5000 µM", "setting": "recombinant E. coli LpxA", "result": "> 80", "unit": "%"}
    ]},
    {"smiles": "CCOC(=O)c1cc(-c2nnn[nH]2)c(-c2ccc(F)cc2)s1", "note": "[DNM-124, 5-(4-Fluoro-phenyl)-4-(1H-tetrazol-5-yl)-thiophene-2-carboxylic acid ethyl ester]", "values": [
      {"measurement": "inhibition at 5000 µM", "setting": "recombinant E. coli LpxA", "result": "> 80", "unit": "%"}
    ]},
    {"smiles": "O=C(O)c1sc(-c2ccc(F)cc2)cc1-c1nnn[nH]1", "note": "[DNM-141, 5-(4-Fluoro-phenyl)-3-(1H-tetrazol-5-yl)-thiophene-2-carboxylic acid]", "values": [
      {"measurement": "inhibition at 5000 µM", "setting": "recombinant E. coli LpxA", "result": "> 80", "unit": "%"}
    ]}
  ]
}
